Measured values reported in patent publication US20210161968A1, “USE OF MICRONEEDLE PATCH TO PROMOTE HAIR GROWTH” (North Carolina State University, priority 2018, published 2021).

Test system: 7-week-old shaved C57BL/6J mouse model
Assay: Hair loss therapy (hair regrowth) in shaved mouse model
Type: in vivo
Description: Animal Studies: C57B/6J mice were used in this work and purchased from Jackson Laboratory (Bar Harbor, Me., United States of America). For in vivo therapy studies, the mice were shaved at postnatal day 50, and treated with an HMN patch loaded with exosomes and/or UK5099 at day 1 and day 5 after hair shave. The patch was pressed firmly for the first 5 seconds to penetrate through the epidermis and then pressed softly for an additional 1 minute to make the patch absorb liquid. The patch base was removed at 4 hours post-insertion into the skin. Topical administration of UK5099 (solvent formulation: ethanol/water/propylene glycol=5/3/2), and subcutaneous injection of exosomes were performed every two days, with the dosage same with that of the corresponding HMN patch. Shaved mice without any treatment were adopted as a control. The clinical agent minoxidil was used via topical administration in a concentration of 3%. The time profile of the hair phenotype transformation was obtained by real-time observation of the hair regrowth in mice. The judgement of the hair follicles in telogen, telogen-anagen transition, and anagen was performed according to a method previously described in the literature. See Oh et al., J. Investig. Dermatol. 2016, 136(1), 34-44. […]

N#CC(=Cc1cn(-c2ccccc2)c2ccccc12)C(=O)O [UK5099, 2-cyano-3-(1-phenyl-1H-indol-3-yl)-2-propenoic acid]
time for HFSCs to enter into anagen (pigmentation and hair regrowth) (delivered via HMN patch, two rounds of administration (day 1 and day 5)): about 8 days
therapeutic effect reflected by the hair covered area (topical administration, seven treatments, compared with HMN administration): inferior therapeutic effect
